One may read the IC50 as the concentration needed to halve the response being measured. Broadly, the EC50 is the concentration that produces a half-maximal response. A high value points to lower potency in that assay.

Our source for the IC50 and EC50 values is patent publication US9221798B2, “4-substituted-(3-substituted-1H-pyrazole-5-amino)-pyrimidine derivatives having activity of inhibiting protein kinase and use thereof” (Zhejian Hisun Pharmaceutical Co., Ltd., priority 2011, dated 2015).

Experiment [1] deals with T1, Aurora A kinase (Homo sapiens, UniProt O14965).
T1 sequence (O14965 1-403): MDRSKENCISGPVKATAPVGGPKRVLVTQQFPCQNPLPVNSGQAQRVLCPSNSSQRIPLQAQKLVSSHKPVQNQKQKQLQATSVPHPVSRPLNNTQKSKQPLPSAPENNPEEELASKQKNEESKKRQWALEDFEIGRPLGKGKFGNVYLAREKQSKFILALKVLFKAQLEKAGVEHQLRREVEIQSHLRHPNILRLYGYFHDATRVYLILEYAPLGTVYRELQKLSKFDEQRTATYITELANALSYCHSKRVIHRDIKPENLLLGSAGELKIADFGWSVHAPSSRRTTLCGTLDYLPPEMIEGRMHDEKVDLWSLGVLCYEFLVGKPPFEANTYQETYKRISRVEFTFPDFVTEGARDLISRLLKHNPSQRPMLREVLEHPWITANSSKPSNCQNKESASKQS
Description: Assay for the inhibiting activity of kinase (Glo Plus / ADP Glo / Caliper), Aurora A. Type of experiment: biochemical. To be noted: kinase inhibition, incubated at 30° C. for 1 hour. The method, then: (§1) Experimental Reagents: a buffer solution of 25 mM HEPES, 10 mM MgCl2, 0.01% Triton X-100, 100 μg/mL BSA, 2.5 mM DTT, pH=7.4; ATP was available from U.S. Sigma (cat. A7699); Glo Plus Kinase Reagent was available from U.S. Promega (cat. V3773); ADP Glo Reagent was available from U.S. Promega (cat. V9102).
(§2) Procedures of the detection experiment for Glo Plus and ADP Glo kinases: the kinase(s), substrate, ATP and the compound(s) to be tested were mixed on a 384-well culture plate, with a total volume of 10 μL of the mixture, […], and then the culture plate was incubated at 30° C. for 1 hour. Test for Glo Plus kinase activity: add 10 μL of Glo Plus kinase per well to the mixture and then incubate at 27° C. for 20 minutes. Test for ADP Glo kinase activity: add 10 μL of ADP Glo per well to the culture plate, and then incubate at 27° C. for 40 minutes. Then a kinase detection reagent (10 μL per well) was added to the culture plate which was incubated at 27° C. for 30 minutes. Read the values from the plate reader to determine inhibition data.
(§3) Biologic testing procedures of Caliper kinase: the kinase, substrate, ATP and the compound to be tested were mixed in a 96-well culture plate, with a total volume of 50 μL of the mixture, and then the culture plate was incubated at 30° C. for 1 hour. Add 20 μL of 35 mM EDTA to the culture plate. A solution of 26 μL of the reaction mixture was transferred to a 384-well culture plate, and read the values on a plate reader to determine inhibition data.
For orientation: In ADP-Glo the light output rises with the ADP produced.

Experiment [2] relates to HepG2. Description: Test for activity of inhibiting tumor cells (CellTiter-Glo cell viability), HepG2. To be noted: Homo sapiens, half growth inhibition concentration, 72 hours incubation. Type of experiment: cell-based. From the text: (§4) Reagents and consumables: 1. Tumor cells were available from HD Biosciences (Shanghai) Co., Ltd. and detected mycoplasma-free; 2. RPMI 1640 Culture Medium, available from U.S. Invitrogen, Code No.: 31800-022; 3. F12K Culture Medium, available from U.S. Invitrogen, Code No.: 21127-022; 4. DMEM Culture Medium, available from U.S. Invitrogen, Code No.: 12100-046; 5. Fetal bovine serum, available from U.S. Hyclone, Code No.: CH30160.03; 6. Penicillin-Streptomycin liquid, available from U.S. Invitrogen, Code No.: 15140-122; 7. Gemcitabine, available from U.K. Tocris, Code No.: 3259; 8. DMSO, available from U.S. Sigma, Code No.: D4540; 9. 96-well cell culture plate, available from U.S. Corning, Code No.: 3610; 10. CellTiter-Glo Luminescent Cell Viability Assay, available from U.S. Promega, Code No.: G7571; 11. Plate Reader, available from U.S. Perkin Elmer, EnVision Multilabel Plate Reader.
(§5) The cell culture mediums: 1. RPMI 1640 whole cell culture medium: a RPMI 1640 culture medium containing 10% fetal bovine serum and 100 U penicillin and 100 μg/mL streptomycin. 2. F12K whole cell culture medium: a F12K culture medium containing 10% fetal bovine serum and 100 U penicillin and 100 μg/mL streptomycin. 3. DMEM whole cell culture medium: a DMEM culture medium containing 10% fetal bovine serum and 100 U penicillin and 100 μg/mL streptomycin.
Preparation of the compounds: 1. A test compound was formulated into a mother liquor in a concentration of 30 mM, and the mother liquor was divided into aliquots and stored in a refrigerator at −80° C. 2. The mother liquors of the test compounds in a concentration of 30 mM were diluted with DMSO to a series of solutions in gradient concentrations, wherein these gradient concentrations included 25 mM, 5 mM, 1 mM, 200 μM, 40 μM, 8 μM, 1.6 μM, 0.32 μM. […]
(§6) Procedures: 1. […] The cell plate was placed into the plate reader for analysis. Set to read chemiluminescence and record the data.
(§7) Data Process: The data read in each well were required to be converted into cell viability. The cell viability could be calculated by using formulae. […]
Background: ATP-based viability assays read luminescence as a measure of living cells.

In experiment [3] the target is Raf-1 kinase (Homo sapiens, UniProt P04049). Description: Assay for the inhibiting activity of kinase (Glo Plus / ADP Glo / Caliper), Raf-1. Type of experiment: biochemical. To be noted: kinase inhibition, incubated at 30° C. for 1 hour. As for the experimental part:
as §1, §2, §3

Experiment [4] concerns K562. Description: Test for activity of inhibiting tumor cells (CellTiter-Glo cell viability), K562. Type of experiment: cell-based. To be noted: Homo sapiens, half growth inhibition concentration, 72 hours incubation.
Source text: as §4, §5
Preparation of the compounds: 1. A test compound was formulated into a mother liquor in a concentration of 30 mM, and the mother liquor was divided into aliquots and stored in a refrigerator at −80° C. 2. The mother liquors of the test compounds in a concentration of 30 mM were diluted with DMSO to a series of solutions in gradient concentrations, wherein these gradient concentrations included 25 mM, 5 mM, 1 mM, 200 μM, 40 μM, 8 μM, 1.6 μM, 0.32 μM. Then the formulated solutions in gradient concentrations were diluted five times with the whole cell culture mediums, and then the gradient concentrations of the test compounds included 5 mM, 1 mM, 200 μM, 40 μM, 8 μM, 1.6 μM, 0.32 μM, 0.064 μM dissolved in 20% DMSO. 3. Only before the experiments began, the prepared solutions of the test compounds in series of gradient concentrations were diluted one hundred times with the whole cell culture mediums under sterile conditions, wherein these gradient concentrations of the test compounds included 50 μM, 10 μM, 2 μM, 0.4 μM, 0.08 μM, 16 nM, 3.2 nM, 0.64 nM; which were 2× the compound solutions and they could be used to treat the cells. 4. […]
as §6, §7

The test system of experiment [5] is A549. Description: Test for activity of inhibiting tumor cells (CellTiter-Glo cell viability), A549. To be noted: Homo sapiens, half growth inhibition concentration, 72 hours incubation. Type of experiment: cell-based.
Source text: as §4
The cell culture mediums: 1. RPMI 1640 whole cell culture medium: a RPMI 1640 culture medium containing 10% fetal bovine serum and 100 U penicillin and 100 μg/mL streptomycin. 2. […]
as §6, §7

Raf-1 kinase, sequence (P04049 whole entry): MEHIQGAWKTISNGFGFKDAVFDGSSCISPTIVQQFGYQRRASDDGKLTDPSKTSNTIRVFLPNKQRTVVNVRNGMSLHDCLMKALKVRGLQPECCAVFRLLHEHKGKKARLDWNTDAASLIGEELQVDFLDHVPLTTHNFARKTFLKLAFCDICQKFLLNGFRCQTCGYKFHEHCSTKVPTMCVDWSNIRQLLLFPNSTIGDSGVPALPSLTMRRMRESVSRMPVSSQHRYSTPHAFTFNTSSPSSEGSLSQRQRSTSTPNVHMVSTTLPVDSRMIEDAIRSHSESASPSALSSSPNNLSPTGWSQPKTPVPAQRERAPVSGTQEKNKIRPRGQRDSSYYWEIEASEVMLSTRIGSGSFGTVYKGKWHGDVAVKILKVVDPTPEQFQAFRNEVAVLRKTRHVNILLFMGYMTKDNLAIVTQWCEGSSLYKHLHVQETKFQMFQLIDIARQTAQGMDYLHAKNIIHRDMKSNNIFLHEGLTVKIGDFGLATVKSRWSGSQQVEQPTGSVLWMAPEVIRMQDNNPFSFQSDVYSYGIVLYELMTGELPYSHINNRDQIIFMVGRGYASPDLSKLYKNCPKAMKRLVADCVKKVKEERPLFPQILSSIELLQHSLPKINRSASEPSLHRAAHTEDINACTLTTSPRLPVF

Turning to `Cc1cc(Nc2nc(Nc3cc(NC(=O)Nc4ccc(Cl)c(C(F)(F)F)c4)ccc3C)ncc2F)n[nH]1` [Compound 2, 1-(4-chloro-3-trifluoromethyl-phenyl)-3-{3-[5-fluoro-4-(5-methyl-1H-pyrazol-3-yl-amino)-pyrimidin-2-yl-amino]-4-methyl-phenyl}-urea], the IC50 turned out to be 0.78 µM in experiment [1] and 0.38 µM in experiment [3]. Besides, the results for the EC50 in experiment [2] and in experiment [4] were 3.82 µM and 4 µM, respectively.
Turning to `Cc1cc(Nc2nc(Nc3cc(NC(=O)Nc4ccc(Cl)c(C(F)(F)F)c4)ccc3C)ncc2C(F)(F)F)n[nH]1` [Compound 3, 1-(4-chloro-3-trifluoromethyl-phenyl)-3-{4-methyl-3-[4-(5-methyl-1H-pyrazol-3-yl-amino)-5-trifluoromethyl-pyrimidin-2-yl-amino]-phenyl}-urea], the IC50 in experiment [3] was 1.53 µM.
In the case of `Cc1cc(Nc2ccnc(Nc3cc(NC(=O)Nc4ccc(Cl)c(C(F)(F)F)c4)ccc3C)n2)n[nH]1` [Compound 4, 1-(4-chloro-3-trifluoromethyl-phenyl)-3-{4-methyl-3-[4-(5-methyl-1H-pyrazol-3-yl-amino)-pyrimidin-2-yl-amino]-phenyl}-urea], in experiment [1], the IC50 was 2.68 µM.
Consider `Cc1cc(Nc2nc(Nc3cc(NC(=O)Nc4ccc(Cl)c(C(F)(F)F)c4)ccc3C)ncc2C)n[nH]1` [Compound 6, 1-(4-chloro-3-trifluoromethyl-phenyl)-3-{4-methyl-3-[5-methyl-4-(5-methyl-1H-pyrazol-3-yl-amino)-pyrimidin-2-yl-amino]-phenyl}-urea], for which the IC50 in experiment [1] came out at 0.14 µM; in experiment [3], 0.25 µM. For the same compound, the results for the EC50 in experiment [2] and in experiment [4] were 6.98 µM and 4.87 µM, respectively.
With `Cc1cc(Nc2nc(Nc3cc(NC(=O)Nc4ccc(Cl)c(C(F)(F)F)c4)ccc3C)ncc2N)n[nH]1` [Compound 8, 1-(4-chloro-3-trifluoromethyl-phenyl)-3-{4-methyl-3-[5-methyl-4-(5-methyl-1H-pyrazol-3-yl-amino)-5-amino-pyrimidin-2-yl-amino]-phenyl}-urea], the values for the IC50 in experiment [1] and in experiment [3] were 2.1 µM and 0.41 µM, respectively. The concentration for a half-maximal effect (EC50) in experiment [4] amounted to 11.9 µM.
Consider `COc1cnc(Nc2cc(NC(=O)Nc3ccc(Cl)c(C(F)(F)F)c3)ccc2C)nc1Nc1cc(C)[nH]n1` [Compound 9, 1-(4-chloro-3-trifluoromethyl-phenyl)-3-{3-[5-methoxy-4-(5-methyl-1H-pyrazol-3-yl-amino)-pyrimidin-2-yl-amino]-4-methyl-phenyl}-urea], for which the figures for the IC50 in experiment [1] and in experiment [3] were 0.34 µM and 0.24 µM, respectively. The concentration for a half-maximal effect (EC50) in experiment [2] amounted to 17.7 µM; in experiment [5], 13.3 µM; in experiment [4] it was 4.8 µM.
Take `Cc1cc(Nc2nc(Nc3cc(NC(=O)Nc4ccc(Cl)c(C(F)(F)F)c4)ccc3C)ncc2O)n[nH]1` [Compound 11, 1-(4-chloro-3-trifluoromethyl-phenyl)-3-{3-[5-hydroxy-4-(5-methyl-1H-pyrazol-3-yl-amino)-pyrimidin-2-yl-amino]-4-methyl-phenyl}-urea]: the IC50 in experiment [3] was 2.14 µM.
